US12507703B2, “Methods, devices and compositions for preserving human milk” (The Trustees of Princeton University, priority 2023, dated 2025)
Values joined by “and” are separate entries in the source; they are usually repeats but may differ in a detail not shown here. Identical values can stand only once. Where a SMILES comes first, the peptide text is derived from it.

Tested on: lipase
Test: Lipase/lipolysis assay (EnzChek Lipase Substrate, quenched BODIPY-fatty acid conjugate) on stored human milk; also: test concentration or dose not given here

Point of comparison: O=C([O-])O.[Na+] [Sodium bicarbonate], “Lipase (RFU)” value 751.602 RFU. Against it:
- C=C(CCC=C(C)C)[C@H]1CC[C@]2(C)[C@@H]1[C@H](O)C[C@@H]1[C@@]3(C)CC[C@H](O)C(C)(C)[C@@H]3[C@@H](O[C@@H]3O[C@H](CO)[C@@H](O)[C@H](O)[C@H]3O[C@@H]3O[C@@H](C)[C@H](O)[C@@H](O)[C@H]3O)C[C@]12C [Ginsenoside Rg6] — lower, 737.5989 RFU
- CNC(C)(C)C(=O)O [MeAIB] — higher, 1061.964 RFU
- N#CCCN [β-Aminopropionitrile] — higher, 985.2024 RFU
- C/C=C/c1cc(OC)c(OC)cc1OC [alpha-Asarone] — higher, 956.156 RFU
- C[C@H](CCC(=O)O)[C@H]1CC[C@H]2[C@@H]3C(=O)C[C@@H]4C[C@H](O)CC[C@]4(C)[C@H]3CC[C@]12C [7-Ketolithocholic acid] — higher, 991.8245 RFU
- NCCO [2-Aminoethanol] — lower, 533.8 RFU
- C[C@@H]1CC[C@@]2(OC1)O[C@H]1C[C@H]3[C@@H]4CC=C5C[C@@H](O[C@@H]6O[C@H](CO)[C@@H](O)[C@H](O)[C@H]6O)CC[C@]5(C)[C@H]4CC[C@]3(C)[C@H]1[C@@H]2C [Diosgenin glucoside] — higher, 1057.302 RFU
- O-Nornuciferine — higher, 773.2053 RFU
- O=C(O)CN(CCO)CCO [Bicine] — higher, 1070.519 RFU
- CC(C)=CCC[C@](C)(O)[C@H]1CC[C@]2(C)[C@@H]1[C@H](O)C[C@@H]1[C@@]3(C)CC[C@H](O)C(C)(C)[C@@H]3[C@@H](O[C@@H]3O[C@H](CO)[C@@H](O)[C@H](O)[C@H]3O[C@@H]3O[C@@H](C)[C@H](O)[C@@H](O)[C@H]3O)C[C@]12C [Ginsenoside Rg2] — higher, 1144.609 RFU
- Theaflavin 3,3′-digallate — higher, 933.3624 RFU
- CC(C)=CCc1c(O)ccc2ccc(=O)oc12 [Osthenol] — higher, 798.6222 RFU
- NC(=O)c1ccc[n+]([C@@H]2O[C@H](COP(=O)([O-])OP(=O)(O)OC[C@H]3O[C@@H](n4cnc5c(N)ncnc54)[C@H](O)[C@@H]3O)[C@@H](O)[C@H]2O)c1 [NAD+] — lower, 662.6014 RFU
- O=c1cc(-c2ccc(O)cc2)oc2cc(O)c([C@@H]3O[C@H](CO)[C@@H](O)[C@H](O)[C@H]3O[C@@H]3OC[C@H](O)[C@H](O)[C@H]3O)c(O)c12 [Isovitexin 2″-O-arabinoside] — higher, 1033.269 RFU
- CC[C@H]1OC(=O)C[C@@H](O)[C@H](C)[C@@H](O[C@@H]2O[C@H](C)[C@@H](O[C@H]3C[C@@](C)(O)[C@@H](O)[C@H](C)O3)[C@H](N(C)C)[C@H]2O)[C@@H](CC=O)C[C@@H](C)C(=O)/C=C/C(C)=C/[C@@H]1CO[C@@H]1O[C@H](C)[C@@H](O)[C@@H](OC)[C@H]1OC.O=C(O)C(O)C(O)C(=O)O [Tylosin (tartrate)] — higher, 942.0391 RFU
- CC(=O)Oc1c(C)c(C)c2c(c1C)CCC(C)(CCC[C@H](C)CCC[C@H](C)CCCC(C)C)O2 (stereo partly drawn) [D-α-Tocopherol acetate] — higher, 1194.717 RFU
- Cl.O=C(O)Cc1cnc[nH]1 [Imidazoleacetic acid (hydrochloride)] — higher, 807.4109 RFU
- CC(=O)OC[C@H]1O[C@@H](O[C@@H]2[C@@H](O)[C@H](O[C@@H]3[C@H](O)C(C)(C)C[C@H]4C5=CC[C@@H]6[C@@]7(C)CC[C@H](O[C@@H]8O[C@H](C(=O)O)[C@@H](O)[C@H](O)[C@H]8O[C@@H]8O[C@H](CO)[C@H](O)[C@H](O)[C@H]8O[C@@H]8O[C@H](CO)[C@@H](O)[C@H](O)[C@H]8O)[C@](C)(CO)[C@@H]7CC[C@@]6(C)[C@]5(C)CC[C@@]34C)OC[C@@H]2O)[C@H](OC(C)=O)[C@@H](OC(C)=O)[C@@H]1OC(C)=O [Soyasaponin Ab] — higher, 976.6301 RFU
- C[N+](C)(C)CCCC[C@H](N)C(=O)O [Nε,Nε,Nε-Trimethyllysine (chloride)] — higher, 1143.924 RFU
- CC(=O)c1c(C)c([N+](=O)[O-])c(C(C)(C)C)c([N+](=O)[O-])c1C [Musk ketone] — higher, 777.5201 RFU
- COc1cc([C@H]2c3cc(O)c(OC)cc3C[C@@H](C)[C@@H]2C)ccc1O [Guaiacin] — higher, 808.3575 RFU
- c1ccc2c(c1)CCO2 [Coumaran] — higher, 980.2989 RFU
- β Glucan - 1,3/1,6 — higher, 942.984 RFU
- C[N+](C)(C)CCOP(=O)(O)O [Phosphorylcholine] — higher, 1107.376 RFU
- 1,4-Dicaffeoylquinic acid — higher, 794.8464 RFU
- CC(C)=CCc1c(O)cc2oc3cc(O)c(O)c(CCC(C)(C)O)c3c(=O)c2c1O [Garcinone C] — higher, 921.9256 RFU
- O.O.O.O.OC[C@H]1O[C@H](OC[C@H]2O[C@H](OC[C@H]3O[C@H](O[C@]4(CO)O[C@H](CO)[C@@H](O)[C@@H]4O)[C@H](O)[C@@H](O)[C@@H]3O)[C@H](O)[C@@H](O)[C@H]2O)[C@H](O)[C@@H](O)[C@H]1O [Stachyose (tetrahydrate)] — lower, 648.6527 RFU
- C=CC/C(=N/OS(=O)(=O)[O-])S[C@@H]1OC(CO)[C@@H](O)C(O)C1O.[K+] (stereo partly shown) [Sinigrin] — higher, 1002.884 RFU
- CC(=O)N[C@@H](CO)[C@@H](O)[C@H](O)[C@H](O)CO [N-Acetyl-D-Glucosaminitol] — higher, 1055.486 RFU
- Oc1cc(O)c2c(c1)O[C@H](c1ccc(O)c(O)c1)[C@H](O)C2 [(−)-Epicatechin] — higher, 927.1089 RFU
- Nc1ncnc2c1ncn2C1OC(CO)C2OP(=O)(O)OC21 (stereo not shown) [Adenosine-2′,3′-cyclic monophosphate] — higher, 828.2019 RFU
- Heparan Sulfate — higher, 1097.057 RFU
- CCCCCC1=C(C)CCC1=O [Dihydrojasmone] — higher, 884.3631 RFU
- COc1cc(OC)c(OC)cc1C=O [Asaraldehyde] — higher, 982.6997 RFU
- NCC(=O)N[C@@H](CC(=O)O)C(=O)O [Glycyl-L-Aspartic] (H-Gly-Asp-OH) — higher, 903.5873 RFU
- O=c1cc(-c2ccc(O)cc2)oc2c([C@@H]3OC[C@@H](O)[C@H](O)[C@H]3O)c(O)c([C@@H]3O[C@H](CO)[C@@H](O)[C@H](O)[C@H]3O)c(O)c12 [Vicenin 3] — higher, 1057.755 RFU
- (+)-Secoisolariciresinol — higher, 1148.179 RFU
- O=C(O)c1ccc(O)nc1 [6-Hydroxynicotinic acid] — lower, 655.7069 RFU
- O=C(O)[C@H]1O[C@@H](Oc2cc(O)c3c(=O)cc(-c4ccc(O)cc4)oc3c2)[C@H](O)[C@@H](O)[C@@H]1O [Apigenin-7-glucuronide] — higher, 991.8672 RFU
- C[C@@H]1C(=O)O[C@H]2C[C@@]34[C@H]5C[C@@H](C(C)(C)C)[C@]36[C@@H](OC(=O)[C@@H]6O)O[C@@]4(C(=O)O5)[C@]21O [Ginkgolide A] — higher, 772.6433 RFU
- COC1=CC(=O)OC(/C=C/c2ccccc2)C1 (single isomer, unassigned; (+)) [(+)-Kavain] — higher, 895.974 RFU
- CC(C)C[C@H](NC(=O)CN)C(=O)O [Glycyl-L-leucine] — higher, 829.1827 RFU
- O=C(O)C(O)Cc1c[nH]c2ccccc12 (stereo not shown) [Indolelactic acid] — lower, 641.0066 RFU
- CCCCCC/C=C\CCCCCCCCCCCC(=O)O [Paullinic acid] — higher, 1192.519 RFU
- C[N+](C)(C)CCOP(=O)([O-])OP(=O)([O-])OC[C@H]1O[C@@H](n2ccc(N)nc2=O)[C@H](O)[C@@H]1O.[Na+] [Citicoline (sodium)] — higher, 965.9573 RFU
- CCCCC/C=C\C/C=C\CCCCCCCC(=O)O[C@H](COC(=O)CCCCCCCCCCCCCCCCC)COP(=O)([O-])OCC[N+](C)(C)C — higher, 1049.632 RFU
- Cl.Cl.NCCCCN [1,4-Diaminobutane (dihydrochloride)] — higher, 865.534 RFU
- O=C1C=C2C(=CCOC2O)O1 (stereo not shown) [Patulin] — higher, 1145.028 RFU
- Pinoresinol — higher, 1253.681 RFU
- NCC(=O)N1CCC[C@H]1C(=O)O [H-Gly-Pro-OH] (H-Gly-Pro-OH) — higher, 952.5324 RFU
- Dextrin — higher, 915.3079 RFU
- N[C@H](CCC(=O)O)C(=O)O [D-Glutamic Acid] — higher, 1176.72 RFU
- CC1C(=O)OC2C(O)C34C5CC(C(C)(C)C)C36C(OC(=O)C6O)OC4(C(=O)O5)C12O (stereo not shown) [Ginkgolide B] — higher, 1094.796 RFU
- c1ccc2c(c1)Nc1ccccc1S2 [Phenothiazine] — lower, 725.1361 RFU
- Nc1ncnc2c1ncn2[C@@H]1O[C@H](CSCC[C@H](N)C(=O)O)[C@@H](O)[C@H]1O [SAH] — lower, 641.7279 RFU
- C[C@H](CCC(=O)O)[C@H]1CC[C@H]2[C@@H]3C(=O)C[C@@H]4C[C@H](O)CC[C@]4(C)[C@H]3C[C@H](O)[C@]12C [7-keto-Deoxycholic acid] — higher, 890.8412 RFU
- O=S(=O)(O)SSS(=O)(=O)O [Tetrathionate] — higher, 924.2846 RFU
- (−)-Epigallocatechin — higher, 928.0708 RFU
- O=C(CO)[C@@H](O)[C@H](O)[C@@H](O)C(=O)O [5-Keto-D-Gluconic Acid] — higher, 922.1469 RFU
- C1CSCSC1 [1,3-Dithiane] — higher, 1179.502 RFU
- CCCCC1OC(=O)c2ccccc21 (stereo not shown) [Butylphthalide] — higher, 989.7778 RFU
- C/C(C=O)=C\CC[C@@H](C)[C@H]1CC[C@@]2(C)C3=CC[C@H]4C(C)(C)C(=O)CC[C@]4(C)C3=CC[C@]12C [Ganoderal A] — higher, 1025.687 RFU
- O=c1cc(-c2ccc(O)c(O)c2)oc2c([C@@H]3O[C@H](CO)[C@@H](O)[C@H](O)[C@H]3O)c(O)cc(O)c12 [Orientin] — lower, 715.9231 RFU

With CCCCCCCC/C=C\CCCCCCCC(=O)[O-].[Na+] [Sodium oleate] the “Lipase (RFU)” value was 985.0339 RFU and 925.2134 RFU.
In the case of O=C(CO)[C@@H](O)[C@H](O)[C@@H](O)CO [(3S,4R,5S)-1,3,4,5,6-Pentahydroxyhexan-2-one], the “Lipase (RFU)” value is reported as 1079.288 RFU and 1003.563 RFU.
For Maltotriose, the “Lipase (RFU)” value was 917.8057 RFU and 1104.158 RFU.
Thiamine nitrate was tested, and the “Lipase (RFU)” value was 1094.609 RFU and 1092.499 RFU.
For O=C(O)c1ccc(O)c(O)c1 [Protocatechuic acid], the “Lipase (RFU)” value was 981.5941 RFU and 972.5566 RFU.
For O=C(CO)[C@@H](O[C@H]1O[C@H](CO)[C@@H](O)[C@H](O)[C@H]1O)[C@H](O)[C@H](O)CO [Turanose], the “Lipase (RFU)” value was 1221.239 RFU and 697.9672 RFU.
